Laboratory results: patent US6555580B2, “Amino- and amido-diphenyl ethers” (Bayer Aktiengesellschaft, priority 2000, dated 2003)

Assay: T3 promoter assay cell test (luciferase reporter under thyroid hormone-regulated promoter)
Format: cell-based
Conditions: Homo sapiens; HepG2 luciferase reporter with thyroid hormone-responsive element; costimulator retinoic acid; incubation 48 or 72 hours; four replicates
Procedure: The activity of the compounds according to the invention can be tested for example in vitro by the known T3 promoter assay cell test which is described below.
T3 Promoter Assay Cell Test
The test is carried out with a stably transfected human HepG2 hepatocarcinoma cell which expresses a luciferase gene under the control of a thyroid hormone-regulated promoter. The vector used for the transfection has upstream of the luciferase gene a minimal thymidine kinase promoter with a thyroid hormone-responsive element (TRE) which consists of two inverted palindromes each of 12 bp and of an 8 bp spacer.
For the test, the cell cultures are seeded in Eagle's minimal essential medium in 96-well plates with the following additions: glutamine, tricine, sodium pyruvate, nonessential amino acids, insulin, selenium and transferrin. The cultures are grown at 37° C. with a 10% CO2 atmosphere for 48 hours. In serial dilutions of test substance or reference compound (triiodothyronine=T3, thyroxine=T4) and costimulator retinoic acid are added to the test cultures and the latter are incubated as previously for a further 48 or 72 hours. Each substance concentration is tested in four replicates. To determine the luciferase induced by T3 or other substances, the cells are subsequently lysed by adding a Triton- and luciferin-containing buffer and measured immediately in a luminometer. The EC50 values for each compound are calculated (see Table 1).

EC50 [µM] | Compound
0.055 | CCCCCCCC(=O)N(Cc1cc(Oc2c(C)cc(NC(=O)C(=O)OCC)cc2C)ccc1O)c1ccc(F)cc1 [Example 122]
0.012 | CCOC(=O)C(=O)Nc1cc(C)c(Oc2ccc(O)c(C(=O)NC(CC)c3ccccc3)c2)c(C)c1 (centres unmarked) [Example 260]
0.014 | CCOC(=O)C(=O)Nc1cc(C)c(Oc2ccc(O)c(NC(=O)C(C)Oc3ccc(Cl)cc3C)c2)c(C)c1 (centres unmarked) [Example 190]
0.0067 | CCOC(=O)C(=O)Nc1cc(C)c(Oc2ccc(O)c(CN(Cc3ccccc3)Cc3ccccc3)c2)c(C)c1 [Example 54]
0.028 | CCOC(=O)C(=O)Nc1cc(C)c(Oc2ccc(O)c(C(=O)N(C)C3CCCCC3)c2)c(C)c1 [Example 16, Ethyl [4-(3-{[cyclohexyl(methyl)amino]carbonyl}-4-hydroxyphenoxy)-3,5-dimethylanilino](oxo)acetate]
0.02 | CCOC(=O)C(=O)Nc1cc(C)c(Oc2ccc(O)c(NC(=O)CCc3ccccc3)c2)c(C)c1 [Example 8, Ethyl (4-{4-hydroxy-3-[(3-phenylpropanoyl)amino]phenoxy}-3,5-dimethylanilino)(oxo)acetate]
0.061 | Cc1cc(N)cc(C)c1Oc1ccc(O)c(NC(=O)NC(C)c2ccccc2)c1 (centres unmarked) [Example 204]
0.0024 | CCCN(Cc1ccccc1)Cc1cc(Oc2c(C)cc(NC(=O)C(=O)OCC)cc2C)ccc1O [Example 29]
